What was measured:
[1] = Electrophoresis radiobinding assay (native polyacrylamide gel); assay type: binding; details: FIG. 9 and other experiments
Protocol: Electrophoresis radiobinding assay. Proteins were analyzed on native polyacrylamide gels following incubation with ^3H-labeled 18:1-LPA. ^3H-labeled lysophosphatidic acid (1-oleyl) (DuPont NEN Products, Boston, Mass.) was added to tested proteins at 1 nM labeled 18:1-LPA/45_(g protein. Mixtures were incubated at a bicarbonate buffered saline/EDTA solution at 37° C. for 60 minutes. Incubated samples were mixed with native gel sample buffer (312_mM Tris pH 6.8, 50% glycerol, 0.05% bromophenol blue) and loaded entirely onto an 8% discontinuous native polyacrylamide gel. Following electrophoresis, proteins were fixed into the gels using an aqueous solution consisting of glacial acetic acid, 10% (vol/vol) and methan 130% (vol./vol.) solution. Fixed gels were then incubated for 60 minutes in autoradiography enhancer (EN^3HANCE, DuPont NEN Products, Boston, Mass.), and dried onto 3M chromatography paper (Whatman, Clifton, N.J.) and exposed to autoradiography film (X-Omat, Kodak, Rochester, N.Y.) for 72 hours at −80° C.

C3H/10T1/2 cells = assay: Effect of proteins on anti-apoptotic activity of soy LPA, C3H/10T1/2 cell assay; assay type: cell-based; details: for Protein +10 (g/mL Soy LPA, percent cells saved from apoptosis): 1:10 soy-LPA to protein (weight:weight); for Protein +10 (g/mL Soy LPA, percent cells saved from apoptosis) / Protein Alone (0.01%), percent cells saved from apoptosis: 24 hours serum deprivation; for Increase with LPA: difference protein + soy LPA minus protein alone; for Protein Alone (0.01%), percent cells saved from apoptosis: protein without LPA; for enhancement of the anti-apoptotic activity of soy-LPA (more than additive protection): soy-LPA added together with protein
Protocol: Soy derived LPA (soy-LPA) (Avanti® Polar Lipids, Inc., Alabaster, Ala.) was stored in an organic solution and was dried immediately prior to assay using a Speed Vac (Savant Instruments, Hicksville, N.Y.). Tested proteins were resuspended at 10_mg/mL in a bicarbonate buffered saline/EDTA solution (50_mM NH4HCO3, […] NaCl, 250_(M EDTA) prior to being added to dried soy-LPA at a 1:10_soy-LPA to protein (weight:weight) ratio. The mixture was then sonicated for 5 minutes using a high power 80 Watt sonication bath (Laboratory Supplies Co., Hicksville, N.Y.). Following sonication, concentrated LPA/protein mixtures were left standing for 15 minutes at room temperature prior to dilution in cell culture assay media.
The effect of various proteins on the ability of LPA to protect serum-starved cells from apoptotic death was measured using the C3H/10T1/2 cell assay, performed as described in Example 2, above. Log phase cells were seeded in 60 mm Petri dishes at 175-350 cells per cm^2 and maintained in Basal Medium Eagle (BME) supplemented with 10% fetal calf serum (Hyclone, Logan, Utah). At time zero, serum containing media was replaced with sterile filtered BME containing the LPA/protein mixture to be tested. After 24 hours of treatment, serum deprived release (SDR) cells (the apoptotic cell population) and adherent (ADH) cells were separated and counted using an electronic cell counter (Coulter Corporation, Hialea, Fla.). SDR cells were counted with the lower threshold setting at 6.3_(m and were defined as the apoptotic cells dying in response to cultivation in serum-free-media. Approximately 95% of the SDR cells are confirmed to be apoptotic as previously shown by size, ultrastructure and DNA fragmentation analysis. Adherent cells were removed by treatment with a Hanks' balanced salt solution containing 0.05% trypsin and 0.53_mM EDTA and were counted with the lower threshold setting at 11.01_(m. All samples were tested in triplicate and serum-deprived controls (BME only) were assayed at both the beginning and end of each experiment.

[2] = Size shift assay (Superdex S75 column); assay type: binding; details: FIGS. 10A-10D
Protocol: Size shift assay. Size analysis of LPA both with and without protein was performed using a Superdex® S75 column (Pharmacia Biotech, Uppsala, Sweden). Soy LPA was combined in a chloroform solution with 0.5 Ci^3H-labeled 18:1-LPA (DuPont NEN Products, Boston, Mass.), dried under vacuum and resuspended by sonication in a buffered solution (50 mM ammonium bicarbonate, 154 mM sodium chloride, pH 8.0) in the presence or absence of test protein. The ammonium bicarbonate/sodium chloride solution was used as the mobile phase at a flow rate of 1 ml/min. One-minute fractions were collected for 30 minutes following sample injection. Fractions were counted in scintillant solution using a liquid scintillation counter (Beckman Instrument, Irvine, Calif.). Calibration was performed using a standard solution containing purified proteins (BioRad, Hercules, Calif.).

Molecule | binding to 18:1-LPA, detectable band [1] | Protein +10 (g/mL Soy LPA, percent cells saved from apoptosis) (C3H/10T1/2 cells) | Increase with LPA (C3H/10T1/2 cells) | Protein Alone (0.01%), percent cells saved from apoptosis (C3H/10T1/2 cells) | enhancement of the anti-apoptotic activity of soy-LPA (more than additive protection) (C3H/10T1/2 cells) | elution profile / binding of LPA to protein [2]
Acyl Carrier Protein: acyl carrier protein from E. coli | did not yield detectable bands | 36.2% | +28.1% | 8.1% | to a lesser degree | 
Albumin (Fatty Acid Depleted): fatty acid depleted (FAD) bovine serum albumin (BSA) | bind to 18:1-LPA | 58.7% | +57.8% | 0.9% |  | most of the LPA was bound to BSA
Cytochrome C: cytochrome C from bovine heart |  | 54.6% | +38.4% | 16.2% |  | LPA does not bind to this protein
Ovalbumin: ovalbumin from chicken egg (protein, UniProt P01012 2-386, looked up) Ovalbumin: GSIGAASMEFCFDVFKELKVHHANENIFYCPIAIMSALAMVYLGAKDSTRTQINKVVRFDKLPGFGDSIEAQCGTSVNVHSSLRDILNQITKPNDVYSFSLASRLYAEERYPILPEYLQCVKELYRGGLEPINFQTAADQARELINSWVESQTNGIIRNVLQPSSVDSQTAMVLVNAIVFKGLWEKAFKDEDTQAMPFRVTEQESKPVQMMYQIGLFRVASMASEKMKILELPFASGTMSMLVLLPDEVSGLEQLESIINFEKLTEWTSSNVMEERKIKVYLPRMKMEEKYNLTSVLMAMGITDVFSSSANLSGISSAESLKISQAVHAAHAEINEAGREVVGSAEAGVDAASVSEEFRADHPFLFCIKHIATNAVLFFGRCVSP | produce a detectable band | 15.I | +7.2% | 7.9% | did not enhance | 
α-fetoprotein: α-fetoprotein from fetal bovine serum (protein, UniProt Q3SZ57 19-610, looked up) Alpha-fetoprotein: RTMHKNAYGIDSILDSSPCSSGTNLVGLATIFFAQSVQGATYEEVSQMVKDVLTIIEKPTGSKQPAGCLENQVSAFLEEICREKEIPEKYGLSDCCSRTGEERHDCFLAHKKAAPASIPPFPVLEPVTSCKSYKENRELFINRYIYEIARRHPVLYAPTILSVANQYNKIIPHCCKAENATECFETKVTSITKELRESSLLNQHICAVMGKFGPRTFRAITVTKVSQKFPKANFTEIQKLVMDVAHIHEECCKGNVLECLQDGERVMSYICSQQDILSRQIAECCKLPTTLELGHCIIHAENDDKPEGLSPNVNRFLGDRDFNQLSSRDKDLSMARFTYEYSRRHTKLAVPIILRVAKGYQELLEKCSQSENPSECQDKGEEELEKYIQESQALAKRSCGLFQKLGEYYLQNAFLVAYTKKAPQLTSPELMALTRKMANAGAICCHLSEDKQLACGEGVADLIIGHLCIRHEENPINPGVDQCCTSSYSNRRPCFSSLVVDETYVPPPFSDDKFIFHKDLCQVQGVPLQTMKQQFLINLVKQKPQITEEQLETVVADFSGLLEKCCQSQEQEVCFTEEGPALISKTRAALGV | bind to 18:1-LPA |  |  |  |  | 

Source: patent US6949528B1, “Compositions containing lysophosphatidic acids which inhibit apoptosis and uses thereof” (priority 1998, dated 2005)
